{"source": "patent US6506781B1", "about": "“Oxazole PPAR antagonist” (SmithKline Beecham Corporation, priority 1999, dated 2003)", "tested_on": "male ZDF/GMI fa/fa rats", "assay": "Experimental animal protocol: blood glucose, triglycerides and NEFAs in ZDF rats", "type": "in vivo", "settings": "150 mg/kg twice a day oral gavage, after 2 weeks, non-fasting, mean ± SEM", "protocol": "Experimental Animal Protocol\nAge and weight matched male ZDF/GMI fa/fa rats (Genetic Models) were housed at 72 degF. and 50% relative humidity with a 12 hr light and dark cycle. Starting at 8 weeks of age the animals were dosed twice a day by oral gavage with 150 mg/kg of example 2. After 2 weeks the animals were anesthetized with isofluorane, blood drawn by cardiac puncture, and non-fasting measurements of glucose, triglycerides, and non-esterified free fatty acids (NEFAS) were obtained. The data were calculated as the mean and standard error (SEM) from experiments performed on ten animals per treatment group. Two-tailed tests were performed to calculate P values using Excel on a personal computer. This research complied with the principles of laboratory animal care (NIH publication No. […], revised 1985) and company policy on the care and use of animals and related codes of practice.", "data": [{"smiles": "CCCc1nnc(C[C@H](Nc2ccccc2C(=O)c2ccccc2)c2ccc(OCCc3nc(-c4ccccc4)oc3C)cc2)o1", "note": "[Example 1, (S)-{{2-[1-(2-Benzoylphenyl)amino]-2-{4-[2-(5-methyl-2-phenyloxazol-4-yl)ethoxy]phenyl}ethyl}}-5-propyl-1,3,4-oxadiazole]", "values": [{"measurement": "Free Fatty Acids", "setting": "control 1.48 ± 0.09", "value": "1.14 ± 0.06", "unit": "mEq/L"}, {"measurement": "Glucose", "setting": "control 313 ± 62", "value": "201 ± 13", "unit": "mg/dL"}, {"measurement": "Triglycerides", "setting": "control 1507 ± 143", "value": "734 ± 102", "unit": "mg/dL"}]}]}
